Type in all cases: cell-based
Test [1] relates to Serratia marcescens. Kind of test: antibacterial spectra (Table 1).
For test [2], the system named is Pseudomonas aeruginosa A3. The test can be described thus: antibacterial spectra (Table 1).
The test system of test [3] is Escherichia coli NIHJ. Kind of test: antibacterial spectra (Table 1).
Test [4] concerns Klebsiella pneumoniae PCI 602. The test can be described thus: antibacterial spectra (Table 1).
Test [5] deals with Streptococcus faecalis. Kind of test: antibacterial spectra (Table 1).
Test [6] concerns Bacillus subtilis ATCC 6633. Kind of test: antibacterial spectra (Table 1).
In test [7] the test system is Bacillus cereus. Kind of test: antibacterial spectra (Table 1).
In test [8] the test system is Proteus inconstans. The test can be described thus: antibacterial spectra (Table 1).
In test [9] the test system is Pseudomonas aeruginosa No. 12. The test can be described thus: antibacterial spectra (Table 1).
Test [10] deals with Pseudomonas aeruginosa K-11. Kind of test: antibacterial spectra (Table 1). As to conditions: Pseudomonas aeruginosa K-11 (resistant to kanamycin).
In test [11] the test system is Pseudomonas aeruginosa Shibata. Kind of test: antibacterial spectra (Table 1).
Test [12] deals with Pseudomonas aeruginosa TI-13. The test can be described thus: antibacterial spectra (Table 1).
The test system of test [13] is Staphylococcus aureus 209P. The test can be described thus: antibacterial spectra (Table 1).
Test [14] deals with Pseudomonas aeruginosa No. 315. The test can be described thus: antibacterial spectra (Table 1). As to conditions: Pseudomonas aeruginosa No. 315 (resistant to gentamicin, tobramycin and amikacin).
For test [15], the system named is Pseudomonas aeruginosa No. 157. The test can be described thus: antibacterial spectra (Table 1).
In test [16] the test system is Proteus vulgaris OX-19. The test can be described thus: antibacterial spectra (Table 1).
Test [17] has as its system Bacillus anthracis.
In test [18] the test system is Escherichia coli ML1410. The test can be described thus: antibacterial spectra (Table 1).

With 4-N-glycyl KA-6606VI, the antibacterial spectra in test [1] is recorded as 0.78; in [2], 6.25; in test [3], 1.56; in [4], 0.78; in [5], 25; in test [6], 0.20. The antibacterial spectra in [7] is recorded as 0.78; in test [8], 1.56; in test [9], 0.78; in test [10] it was 6.25; in test [11], 6.25; in test [12] it was 3.13. In addition, the antibacterial spectra in test [13] amounted to 0.39; in test [14], 12.5; in test [15], 3.13; in [16], 1.56; in test [17], 0.20; in [18], 3.13.

The values are drawn from patent US4255421A, “Fortimicin aminoglycosides, process for production thereof, and use thereof” (Kowa Company, Ltd., priority 1978, dated 1981).
